In PubChem BioAssay AID1963964 (Molecular Pharmacology Branch, DTP, NCI, 2024):

Test system: 997726-040-R-J2-PDC tumor spheroids, viability
Test: Anticancer human tumor 997726-040-R-J2-PDC patient-derived squamous cell lung carcinoma cell line growth inhibition [PI3K]
Details: spheroids with HUVEC and MSC; for IC50: curve of first compound; for viability, T/C: stronger effect = lower value; active = viability on the fitted dose curve at most 10% of control; inactive = the rest
Procedure, shortened: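 Three cell types, namely tumor cells, endothelial cells and mesenchymal stem cells, formed each spheroid. Combinations with four PI3K inhibitors were screened at clinically achievable concentrations decreasing by half-log, and spheroid viability was recorded.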

[1] = second compound 0.0316 µM, first compound 0.00316 µM
[2] = second compound 0.0316 µM, first compound 0.01 µM
[3] = second compound 0.0316 µM, first compound 0.0316 µM
[4] = second compound 0.0316 µM, first compound 0.1 µM
[5] = second compound 0.1 µM, first compound 0.00316 µM
[6] = second compound 0.1 µM, first compound 0.01 µM
[7] = second compound 0.1 µM, first compound 0.0316 µM
[8] = second compound 0.1 µM, first compound 0.1 µM
[9] = second compound 0.316 µM, first compound 0.00316 µM
[10] = second compound 0.316 µM, first compound 0.01 µM
[11] = second compound 0.316 µM, first compound 0.0316 µM
[12] = second compound 0.316 µM, first compound 0.1 µM
[13] = second compound 1 µM, first compound 0.00316 µM
[14] = second compound 1 µM, first compound 0.01 µM
[15] = second compound 1 µM, first compound 0.0316 µM
[16] = second compound 1 µM, first compound 0.1 µM
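Also: spheroids exposed to compounds for seven days before readout.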

Cn1ncnc1[C@H]1c2n[nH]c(=O)c3cc(F)cc(c23)N[C@@H]1c1ccc(F)cc1 + Cc1nc(NC(=O)N2CCCC2C(N)=O)sc1-c1ccnc(C(C)(C)C(F)(F)F)c1
inactive: viability, T/C (second compound 0.0316 µM, first compound 0.000316 µM) 83.8% | viability, T/C (second compound 0.0316 µM, first compound 0.001 µM) 81.5% | viability, T/C [1] 94.3% | viability, T/C [2] 84.9% | viability, T/C [3] 90.7% | viability, T/C [4] 90.4% | viability, T/C (second compound 0.1 µM, first compound 0.000316 µM) 75.5% | viability, T/C (second compound 0.1 µM, first compound 0.001 µM) 78.6% | viability, T/C [5] 78.5% | viability, T/C [6] 80.2% | viability, T/C [7] 80.8% | viability, T/C [8] 78.2% | viability, T/C (second compound 0.316 µM, first compound 0.000316 µM) 54.5% | viability, T/C (second compound 0.316 µM, first compound 0.001 µM) 59.4% | viability, T/C [9] 57.2% | viability, T/C [10] 57.2% | viability, T/C [11] 58.4% | viability, T/C [12] 58% | viability, T/C (second compound 1 µM, first compound 0.000316 µM) 46.2% | viability, T/C (second compound 1 µM, first compound 0.001 µM) 43.4% | viability, T/C [13] 40.3% | viability, T/C [14] 41.5% | viability, T/C [15] 44.9% | viability, T/C [16] 45.1% | viability, T/C (second compound 3.16 µM, first compound 0.000316 µM) 33% | viability, T/C (second compound 3.16 µM, first compound 0.001 µM) 29.4% | viability, T/C (second compound 3.16 µM, first compound 0.00316 µM) 30% | viability, T/C (second compound 3.16 µM, first compound 0.01 µM) 31.4% | viability, T/C (second compound 3.16 µM, first compound 0.0316 µM) 30.4% | viability, T/C (second compound 3.16 µM, first compound 0.1 µM) 29% | viability, T/C (second compound 10 µM, first compound 0.000316 µM) 17.2% | viability, T/C (second compound 10 µM, first compound 0.001 µM) 18% | viability, T/C (second compound 10 µM, first compound 0.00316 µM) 16.3% | viability, T/C (second compound 10 µM, first compound 0.01 µM) 13.6% | viability, T/C (second compound 10 µM, first compound 0.0316 µM) 18.8% | viability, T/C (second compound 10 µM, first compound 0.1 µM) 12.8%
< 0.316 nM: IC50 (second compound 1 µM) | IC50 (second compound 3.16 µM) | IC50 (second compound 10 µM)
> 100 nM: IC50 (second compound 0.0316 µM) | IC50 (second compound 0.1 µM) | IC50 (second compound 0.316 µM)

CCN1CCN(Cc2ccc(Nc3ncc(F)c(-c4cc(F)c5nc(C)n(C(C)C)c5c4)n3)nc2)CC1 + CC(Nc1ccc2c(c1)OCCn1cc(N3C(=O)OCC3C(F)F)nc1-2)C(N)=O
> 1000 nM: IC50 (second compound 0.00316 µM)
10.4 nM: IC50 (second compound 0.0316 µM)
830 nM: IC50 (second compound 0.01 µM)
< 3.16 nM: IC50 (second compound 0.1 µM) | IC50 (second compound 0.316 µM) | IC50 (second compound 1 µM)
inactive: viability, T/C (second compound 0.00316 µM, first compound 0.00316 µM) 79% | viability, T/C (second compound 0.00316 µM, first compound 0.01 µM) 79.8% | viability, T/C (second compound 0.00316 µM, first compound 0.0316 µM) 72.7% | viability, T/C (second compound 0.00316 µM, first compound 0.1 µM) 58.5% | viability, T/C (second compound 0.00316 µM, first compound 0.316 µM) 59.4% | viability, T/C (second compound 0.00316 µM, first compound 1 µM) 62.3% | viability, T/C (second compound 0.01 µM, first compound 0.00316 µM) 79.8% | viability, T/C (second compound 0.01 µM, first compound 0.01 µM) 77.3% | viability, T/C (second compound 0.01 µM, first compound 0.0316 µM) 60.7% | viability, T/C (second compound 0.01 µM, first compound 0.1 µM) 62.6% | viability, T/C (second compound 0.01 µM, first compound 0.316 µM) 55.4% | viability, T/C (second compound 0.01 µM, first compound 1 µM) 48.1% | viability, T/C [1] 55% | viability, T/C [2] 54.6% | viability, T/C [3] 45.9% | viability, T/C [4] 37.7% | viability, T/C (second compound 0.0316 µM, first compound 0.316 µM) 40.4% | viability, T/C (second compound 0.0316 µM, first compound 1 µM) 43.4% | viability, T/C [5] 44.7% | viability, T/C [6] 38.1% | viability, T/C [7] 34.6% | viability, T/C [8] 30.5% | viability, T/C (second compound 0.1 µM, first compound 0.316 µM) 32.5% | viability, T/C (second compound 0.1 µM, first compound 1 µM) 32.3% | viability, T/C [9] 33.4% | viability, T/C [10] 29.6% | viability, T/C [11] 26.4% | viability, T/C [12] 22% | viability, T/C (second compound 0.316 µM, first compound 0.316 µM) 23.9% | viability, T/C (second compound 0.316 µM, first compound 1 µM) 23.1% | viability, T/C [13] 29.3% | viability, T/C [14] 26.8% | viability, T/C [15] 22.8% | viability, T/C [16] 18.2% | viability, T/C (second compound 1 µM, first compound 0.316 µM) 20.4% | viability, T/C (second compound 1 µM, first compound 1 µM) 21.1%
